Source: ChEMBL document CHEMBL1149733, “Antitumor agents, 130, Novel 4 beta-arylamino derivatives of 3',4'-didemethoxy-3',4'-dioxo-4-deoxypodophyllotoxin as potent inhibitors of human DNA topoisomerase II” (1992)

How the values were obtained:
[1] = target: DNA topoisomerase 2-alpha (Homo sapiens) (UniProt P11388); test: Inhibition of human DNA topoisomerase 2
[2] = target: DNA topoisomerase 2-alpha (Homo sapiens) (UniProt P11388); test: Inhibition of strand rejoining activity of human DNA topoisomerase 2 assessed as protein-DNA complex formation at 20 uM by cell-based assay; parameters: scale not given: the % may be the effect or the level left
KB = test: Cytotoxicity against human KB cells assessed as reduction in cell number after 3 days; format: functional; conditions: 72 h, read-out: ID50 (the source's name)
[3] = target: DNA topoisomerase 2-alpha (Homo sapiens) (UniProt P11388); test: Inhibition of strand rejoining activity of human DNA topoisomerase 2 assessed as protein-DNA complex formation at 10 uM by cell-based assay; parameters: scale not given: the % may be the effect or the level left

Chain of DNA topoisomerase 2-alpha (Homo sapiens) (P11388 whole entry): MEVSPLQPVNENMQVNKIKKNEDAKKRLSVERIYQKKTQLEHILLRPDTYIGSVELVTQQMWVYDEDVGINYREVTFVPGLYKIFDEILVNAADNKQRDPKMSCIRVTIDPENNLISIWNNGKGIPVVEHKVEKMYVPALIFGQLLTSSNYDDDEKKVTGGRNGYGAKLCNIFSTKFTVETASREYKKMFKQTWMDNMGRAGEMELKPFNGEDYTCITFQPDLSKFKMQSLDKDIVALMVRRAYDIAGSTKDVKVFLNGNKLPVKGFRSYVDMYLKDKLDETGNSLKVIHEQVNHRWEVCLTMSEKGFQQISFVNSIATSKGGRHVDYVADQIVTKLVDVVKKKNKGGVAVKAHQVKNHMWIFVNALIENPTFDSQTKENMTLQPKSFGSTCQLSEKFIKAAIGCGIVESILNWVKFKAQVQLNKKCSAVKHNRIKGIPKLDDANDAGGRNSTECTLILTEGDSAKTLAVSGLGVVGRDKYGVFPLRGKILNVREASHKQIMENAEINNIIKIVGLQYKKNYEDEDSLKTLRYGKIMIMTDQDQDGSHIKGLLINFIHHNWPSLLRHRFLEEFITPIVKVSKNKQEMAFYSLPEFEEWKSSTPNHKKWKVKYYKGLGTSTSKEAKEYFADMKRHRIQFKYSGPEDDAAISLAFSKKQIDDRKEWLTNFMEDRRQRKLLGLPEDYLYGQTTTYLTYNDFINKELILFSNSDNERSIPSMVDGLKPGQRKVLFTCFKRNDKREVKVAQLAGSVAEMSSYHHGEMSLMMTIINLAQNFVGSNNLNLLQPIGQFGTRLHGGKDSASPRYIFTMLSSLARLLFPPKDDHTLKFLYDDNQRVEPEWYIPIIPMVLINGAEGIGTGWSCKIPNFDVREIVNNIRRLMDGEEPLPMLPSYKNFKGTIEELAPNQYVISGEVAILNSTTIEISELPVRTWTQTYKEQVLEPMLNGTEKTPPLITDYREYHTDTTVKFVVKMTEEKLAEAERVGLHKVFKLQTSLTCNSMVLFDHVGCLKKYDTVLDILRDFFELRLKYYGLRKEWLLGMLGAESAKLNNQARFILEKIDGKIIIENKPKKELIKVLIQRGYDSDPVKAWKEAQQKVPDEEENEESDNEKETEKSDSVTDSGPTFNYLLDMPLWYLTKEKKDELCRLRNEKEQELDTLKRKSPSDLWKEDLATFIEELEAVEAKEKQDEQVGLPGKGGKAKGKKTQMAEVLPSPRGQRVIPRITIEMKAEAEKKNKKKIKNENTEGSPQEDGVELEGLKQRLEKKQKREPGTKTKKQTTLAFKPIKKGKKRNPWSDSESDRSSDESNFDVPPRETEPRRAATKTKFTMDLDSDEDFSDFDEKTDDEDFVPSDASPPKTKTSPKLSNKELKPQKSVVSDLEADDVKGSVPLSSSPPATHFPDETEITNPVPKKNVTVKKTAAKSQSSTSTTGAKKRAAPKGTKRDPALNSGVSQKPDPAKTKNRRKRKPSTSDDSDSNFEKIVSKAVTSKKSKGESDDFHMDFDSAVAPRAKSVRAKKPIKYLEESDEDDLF

Structure (SMILES) | ID50 [1] | Activity [2] | IC50 (KB) | Activity [3]
COc1cc([C@@H]2c3cc4c(cc3[C@H](O)[C@H]3COC(=O)[C@H]23)OCO4)cc(O)c1O | 50 µM | 8% |  | 
COC1=CC([C@@H]2c3cc4c(cc3[C@@H](Nc3ccc([N+](=O)[O-])cc3)[C@H]3COC(=O)[C@@H]32)OCO4)=CC(=O)C1=O | 10 µM | 128% | 1.3 µM | 
COC1=CC([C@@H]2c3cc4c(cc3[C@@H](Oc3ccc(F)cc3)[C@H]3COC(=O)[C@@H]32)OCO4)=CC(=O)C1=O | 100 µM | 30% | 0.9 µM | 
COC1=CC([C@@H]2c3cc4c(cc3[C@@H](Nc3cncc5ccccc35)[C@H]3COC(=O)[C@@H]32)OCO4)=CC(=O)C1=O | 100 µM | 95% | 1.5 µM | 
CCOC(=O)c1ccccc1N[C@@H]1c2cc3c(cc2[C@@H](C2=CC(=O)C(=O)C(OC)=C2)[C@H]2C(=O)OC[C@@H]21)OCO3 | 100 µM | 4% | 7 µM | 
COC1=CC([C@@H]2c3cc4c(cc3[C@@H](Nc3ccccc3)[C@H]3COC(=O)[C@@H]32)OCO4)=CC(=O)C1=O | 25 µM | 32% | > 2 µM | 
COC(=O)c1cccc(N[C@@H]2c3cc4c(cc3[C@@H](c3cc(O)c(O)c(OC)c3)[C@H]3C(=O)OC[C@@H]32)OCO4)c1 | 25 µM | 94% | 2.3 µM | 
COC1=CC([C@@H]2c3cc4c(cc3[C@@H](Nc3ccc(C(F)(F)F)cc3)[C@H]3COC(=O)[C@@H]32)OCO4)=CC(=O)C1=O | 25 µM | 51% | 6.5 µM | 
COc1cc([C@@H]2c3cc4c(cc3[C@@H](Nc3ccc(C#N)cc3)[C@H]3COC(=O)[C@H]23)OCO4)cc(O)c1O | 25 µM | 146% | 1.8 µM | 
COc1cc([C@@H]2c3cc4c(cc3[C@@H](Nc3ccccc3)[C@H]3COC(=O)[C@H]23)OCO4)cc(O)c1O | 25 µM | 128% | 1.8 µM | 
COC1=CC([C@@H]2c3cc4c(cc3[C@@H](Nc3ccc(F)cc3)[C@H]3COC(=O)[C@@H]32)OCO4)=CC(=O)C1=O | 25 µM | 92% | 1.3 µM | 
COC(=O)c1ccc(N[C@@H]2c3cc4c(cc3[C@@H](C3=CC(=O)C(=O)C(OC)=C3)[C@H]3C(=O)OC[C@@H]32)OCO4)cc1O | 100 µM | 47% | 1.9 µM | 
COc1cc([C@@H]2c3cc4c(cc3[C@@H](Nc3ccc(F)cc3)[C@H]3COC(=O)[C@H]23)OCO4)cc(O)c1O | 10 µM | 117% | 1.5 µM | 
COC1=CC([C@@H]2c3cc4c(cc3[C@@H](O)[C@H]3COC(=O)[C@@H]32)OCO4)=CC(=O)C1=O | < 5 µM | 41% | 2.8 µM | 
COC1=CC([C@@H]2c3cc4c(cc3[C@@H](Nc3cccc(F)c3)[C@H]3COC(=O)[C@@H]32)OCO4)=CC(=O)C1=O | 100 µM | 37% | 1.6 µM | 
COc1cc([C@@H]2c3cc4c(cc3[C@@H](Nc3cccc(Br)c3)[C@H]3COC(=O)[C@H]23)OCO4)cc(OC)c1O |  |  |  | 62%
COC(=O)c1cccc(N[C@@H]2c3cc4c(cc3[C@@H](C3=CC(=O)C(=O)C(OC)=C3)[C@H]3C(=O)OC[C@@H]32)OCO4)c1 | 100 µM | 67% | 1.2 µM | 
COC1=CC([C@@H]2c3cc4c(cc3[C@@H](Nc3cc(C(F)(F)F)cc(C(F)(F)F)c3)[C@H]3COC(=O)[C@@H]32)OCO4)=CC(=O)C1=O | > 100 µM | 4% | 5.5 µM | 
COC1=CC([C@@H]2c3cc4c(cc3[C@@H](Nc3ccc(C#N)cc3)[C@H]3COC(=O)[C@@H]32)OCO4)=CC(=O)C1=O | 50 µM | 18% | > 2 µM | 
COc1cc([C@@H]2c3cc4c(cc3[C@@H](Nc3ccccc3F)[C@H]3COC(=O)[C@H]23)OCO4)cc(OC)c1O |  |  |  | 121%
COc1cc([C@@H]2c3cc4c(cc3[C@@H](Nc3ccc(Cl)cc3)[C@H]3COC(=O)[C@H]23)OCO4)cc(OC)c1O | 50 µM |  |  | 99%

Structure (SMILES) | ID50 [1] | Activity [2] | IC50 (KB) | Activity [3]
COc1cc([C@@H]2c3cc4c(cc3[C@@H](Nc3cccc(F)c3)[C@H]3COC(=O)[C@H]23)OCO4)cc(OC)c1O | 50 µM |  |  | 158%
COC1=CC([C@@H]2c3cc4c(cc3C(=O)[C@H]3COC(=O)[C@@H]32)OCO4)=CC(=O)C1=O | 5 µM | 56% | > 4 µM | 
COC1=CC([C@@H]2c3cc4c(cc3[C@@H](Nc3cc(F)cc(F)c3)[C@H]3COC(=O)[C@@H]32)OCO4)=CC(=O)C1=O | 50 µM | 57% | 2 µM | 
COC1=CC([C@@H]2c3cc4c(cc3[C@@H](Nc3cc([N+](=O)[O-])cc([N+](=O)[O-])c3)[C@H]3COC(=O)[C@@H]32)OCO4)=CC(=O)C1=O | 50 µM | 32% | 1.8 µM | 
COc1cc([C@@H]2c3cc4c(cc3[C@@H](Nc3cc(F)cc(F)c3)[C@H]3COC(=O)[C@H]23)OCO4)cc(OC)c1O | 50 µM |  |  | 115%
CCOC(=O)c1ccc(N[C@@H]2c3cc4c(cc3[C@@H](C3=CC(=O)C(=O)C(OC)=C3)[C@H]3C(=O)OC[C@@H]32)OCO4)cc1 | 25 µM | 110% | 1.4 µM | 
COC1=CC([C@@H]2c3cc4c(cc3[C@@H](Nc3ccc(C(C)=O)cc3)[C@H]3COC(=O)[C@@H]32)OCO4)=CC(=O)C1=O | 50 µM | 69% | 1.5 µM | 
COc1cc([C@@H]2c3cc4c(cc3[C@@H](Nc3cccc([N+](=O)[O-])c3)[C@H]3COC(=O)[C@H]23)OCO4)cc(O)c1O | 50 µM | 75% | 2 µM | 
COc1cc([C@@H]2c3cc4c(cc3[C@@H](O)[C@H]3COC(=O)[C@H]23)OCO4)cc(OC)c1O | > 100 µM |  |  | 0%
COC1=CC([C@@H]2c3cc4c(cc3[C@H](O)[C@H]3COC(=O)[C@@H]32)OCO4)=CC(=O)C1=O | 10 µM | 4% | 1.9 µM | 
COc1cc([C@@H]2c3cc4c(cc3[C@@H](Nc3ccc([N+](=O)[O-])cc3)[C@H]3COC(=O)[C@H]23)OCO4)cc(O)c1O | 10 µM | 200% | 1.3 µM | 
COc1cc([C@@H]2c3cc4c(cc3[C@H](O)[C@H]3COC(=O)[C@H]23)OCO4)cc(OC)c1O | > 100 µM |  |  | 1.1%
COC1=CC([C@@H]2c3cc4c(cc3[C@@H](Nc3ccc(Cl)cc3)[C@H]3COC(=O)[C@@H]32)OCO4)=CC(=O)C1=O | 25 µM | 27% | > 4 µM | 
COc1cc([C@@H]2c3cc4c(cc3[C@@H](Nc3ccc(C(C)=O)cc3)[C@H]3COC(=O)[C@H]23)OCO4)cc(O)c1O | 25 µM | 147% | 1 µM | 
COC1=CC([C@@H]2c3cc4c(cc3[C@@H](Nc3ccccc3F)[C@H]3COC(=O)[C@@H]32)OCO4)=CC(=O)C1=O | 100 µM | 29% | 1.2 µM | 
COc1cc([C@@H]2c3cc4c(cc3[C@@H](O)[C@H]3COC(=O)[C@H]23)OCO4)cc(O)c1O | 100 µM | 50% |  | 
COc1cc([C@@H]2c3cc4c(cc3[C@@H](Nc3ccc(Cl)cc3)[C@H]3COC(=O)[C@H]23)OCO4)cc(O)c1O | > 50 µM | 77% | 2 µM | 
COC1=CC([C@@H]2c3cc4c(cc3[C@@H](Nc3cccc(Br)c3)[C@H]3COC(=O)[C@@H]32)OCO4)=CC(=O)C1=O | 50 µM | 15% | 6.1 µM | 
COC1=CC([C@@H]2c3cc4c(cc3[C@@H](Nc3cccc([N+](=O)[O-])c3)[C@H]3COC(=O)[C@@H]32)OCO4)=CC(=O)C1=O | 50 µM | 33% | > 4 µM | 
COC1=CC([C@@H]2c3cc4c(cc3[C@@H](Nc3ccc(CC#N)cc3)[C@H]3COC(=O)[C@@H]32)OCO4)=CC(=O)C1=O | 25 µM | 41% | 2 µM | 
COc1cc([C@@H]2c3cc4c(cc3[C@@H](Nc3ccc(CC#N)cc3)[C@H]3COC(=O)[C@H]23)OCO4)cc(O)c1O | 25 µM | 109% | 1.2 µM | 
